Experimental data reported in a melting point compilation (Tetko et al.; mined from patent text by program, amines drawn as free bases though some values may be those of a salt).

melting point | SMILES
136 °C | CS(=O)(=O)c1ccc(C(=O)c2ccc(F)cc2)cc1
169 to 171 °C | CCOC(=O)N1Cc2sc3ncn(CCCl)c(=O)c3c2C1
166 to 167 °C | COC(=O)C1=C(C)NC(C)=C(C(=O)OCCN)C1c1cccc(Cl)c1Cl (centres undefined)
96 to 98 °C | CCc1cccc(NC(=N)Nc2cccc3ccccc23)c1
267 to 268 °C | COc1cc(-c2cnc3[nH]cc(C(=O)C45CC6CC(CC(C6)C4)C5)c3n2)cc(OC)c1OC
295 to 296 °C | O=C1Nc2ccccc2Nc2ncccc21
280 to 282 °C | O=C1N[C@H](c2ccccc2)CSC[C@@H]1N1C(=O)c2ccccc2C1=O
110 to 114 °C | CC(C)c1nn(-c2ccc3ccccc3n2)c(-c2ccc(F)cc2)c1Br
69 °C | CCSc1ccc2cc(C(C)=O)ccc2c1
82 °C | Oc1ccc(Oc2ccc(Cl)cc2Cl)cc1
196 to 202 °C | O=C1CNc2cc([N+](=O)[O-])c(F)cc2O1
142 to 144 °C | O=C1CCC(N2CCN(c3ccccn3)CC2)CC1
228 to 230 °C | Cc1c(C(N)=O)oc2nn(Cc3ccccc3)c(C)c12
136 to 138 °C | CC(=O)NC[C@H]1CN(c2ccc(N3CCC(Cc4nnn(C)n4)CC3)c(F)c2)C(=O)O1
160 to 162 °C | CCCc1nc2ccccc2[nH]1
171 to 172 °C | Cc1nc(Br)cnc1NS(=O)(=O)c1cccc2c(N(C)C)cccc12
150 to 151 °C | CC(=O)OCc1ccc(Sc2ccccc2C(=O)O)c([N+](=O)[O-])c1
122 °C | CC1(C)COC(c2ccc3c(c2)C(=O)c2ccccc2CO3)=N1
170 to 171 °C | Cc1oc(-c2ccco2)nc1COc1ccc(COc2nn(Cc3ccccc3)cc2C(=O)O)cc1
109 to 113 °C | CCOc1ccc(-c2nc(-c3cccc(CO)n3)cs2)cc1OCC
136 to 139 °C | COc1cc(OC)nc(NC(=O)NS(=O)(=O)Oc2ccccc2)n1
174 to 175 °C | CC(C)Cn1c(=O)n(C)c(=O)c2c(Sc3nc(Br)n[nH]3)c(Cc3ccccc3C(F)(F)F)sc21
98 to 99 °C | COc1ccc(CSc2ccc([N+](=O)[O-])cc2CBr)cc1
119 °C | O=C(Cc1ccc(Cl)cc1Cl)c1ccc(Cl)cc1
204 to 206 °C | Nc1nc2cc(OCC(=O)N3CCOCC3)ccc2c2c1nc1n2CCOC1

melting point | SMILES
135 to 139 °C | CCCCC12CCC3C4=C(CCC3C1CCC2O)CC(OC)=CC4 (centres undefined)
54 to 55 °C | CCOC(=O)C(=NO)C(C)C
95 to 105 °C | O=C(CN1CCN(C(=O)c2cc(C(F)(F)F)cc(C(F)(F)F)c2)[C@H](Cc2c[nH]c3ccccc23)C1)c1ccc(F)cc1
190 to 195 °C | CC(=O)Nc1c(C)ccc(O)c1C
199 to 201 °C | CC(=O)OCc1cnc2c(NC(=O)c3c(Cl)cccc3Cl)cccc2c1
90.5 to 92.5 °C | CO[C@H]1O[C@@H](C)[C@@H]2[C@H](/C=C/[C@H]3CCC[C@H](C)N3C(=O)OC(C)(C)C)[C@H]3CCCC[C@@H]3C[C@H]12
73 to 75 °C | COC(COc1cc(C)cc(O)c1)OC
219 to 220 °C | O=C(O)C(=O)N1CCc2cc(S(=O)(=O)N3CCN(c4cccc(Cl)c4)CC3)ccc21
211 to 212 °C | CC(C)(C)OC(=O)N1CC[C@@H](NC(=O)c2ccc(-n3cc4ccccc4n3)cc2)C1
250 °C | O=C1Nc2c(Br)cncc2C1(Br)Br
83 to 85 °C | O=C1CSCN1CCCCN1CCN(c2ccc(F)cc2)CC1
113 to 114 °C | COC(=O)C(C)Nc1nc(Cl)ccc1[N+](=O)[O-] (centres undefined)
168 to 175 °C | O=c1c(Br)c(OCc2ccc(Cl)cc2)cnn1-c1ccc(Cl)cc1
151 to 155 °C | CC(=O)OCCCc1cc(C=C2SC(=S)N(C)C2=O)cc(CCCOC(C)=O)c1O
148 to 150 °C | O=C(O)CNC(=O)c1c(F)cccc1[N+](=O)[O-]
168 to 172 °C | O=C(O)C1(N(Cc2noc(=O)[nH]2)S(=O)(=O)c2ccc(-c3ccc(Cl)cc3)cc2)CC1c1ccccc1 (centres undefined)
162 to 165 °C | C[C@@H]1S[C@@H](C(=O)Nc2ccc(CN3CCCCC3)cc2)Cc2cc3c(cc2C1=O)OCO3
90 to 95 °C | O=C(Nc1cccc([N+](=O)[O-])c1)c1cccnc1Oc1cccc(C(F)(F)F)c1
> 200 °C | CCOC(=O)c1ccc(N(C)Cc2ccc3nc(C)[nH]c(=O)c3c2)s1
> 300 °C | N#Cc1cccc2c1NC(=O)C2c1ncnc2c1cnn2C1CCCCC1 (centres undefined)
93 to 103 °C | C[C@@H](n1ccn(-c2ccc(O)cc2)c1=O)[C@](O)(Cn1cncn1)c1ccc(F)cc1F
173 to 177 °C | O=C(O)CN(CC(CO)N(CCCO)CC(=O)O)CC(CO)N(CCCO)CC(=O)O (centres undefined)
87 °C | Cc1nn(C(=O)NC(C)(C)CCc2ccccc2)c(=O)n1N
82 to 83 °C | CCOC(=O)C(=C1CCCN1C)c1ccc([N+](=O)[O-])cc1

Further lines, the compound ahead of its results:

SMILES | melting point
COC(=O)c1ccc(Cn2c(=O)c3cc(C(=O)NCc4ccc(OC)cc4)sc3n(C)c2=O)cc1 | 235 to 237 °C
Cc1nc2c(N)nc3ccccc3c2n1CCCC1(C)OCCO1 | 193 to 195 °C
C#CCCCCC(=O)Nc1nc2nn(C)cc2c2nc(-c3ccco3)nn12 | 208 to 215 °C
COC1CCC2(C)C(CCC3C2CCC2(C)C(C(C)=O)CCC32)C1 (centres undefined) | 125 to 126 °C
CC(=O)c1cc2cccc(OC3SCC(O)C(O)C3O)c2o1 (centres undefined) | 116 to 120 °C
O=c1oc2ccc(Cl)cc2c(Cl)c1Cl | 133 to 135 °C
O=CNC=Cc1cc(O)ccc1O | 149 to 153 °C
NCc1ccc2c(c1)ncn2-c1cccc(-c2ccccn2)c1 | 224 to 229 °C
CC(C)Sc1ccoc1C(=O)Nc1nnn[nH]1 | 201 to 203 °C
CC1(C)CC(=O)Nc2ccc(-c3cccc(F)c3)cc21 | 190 to 192 °C
CC(=O)N(O)C(C)c1cc(C(C)(C)C)c(O)c(C(C)(C)C)c1 (centres undefined) | 153 to 154 °C
CCOC(=O)c1cn2c(C)c(C)nc2c(O)c1CCC(=O)c1ccccc1 | 172 to 174 °C
CCCCCCOC(=O)Oc1ccc2c(N3CCN(CCCC(=O)c4ccc(F)cc4)CC3)noc2c1 | 77 to 80 °C
CN(CCCc1cccc(Oc2ccc(C(F)(F)F)cc2)c1)N=O | 75 to 76 °C
CCCCCCC(=O)c1ccc(O)cc1 | 93 °C
Cc1nc2c(C=O)cccn2c1[N+](=O)[O-] | 182 to 184 °C
O=C1NCCc2c1c1cccc(OCc3ccccc3)c1n2COCc1ccccc1 | 188 to 190 °C
CCC(C(=O)c1ccc(O)cc1)c1ccccc1 (centres undefined) | 127 to 129 °C
Cc1ccc2c(c1)c(N1CCN(C(=O)c3cccs3)CC1)c(C#N)c(=O)n2CCN1CCOCC1 | 207 °C
COc1ccc(-c2cc(C(=O)C(C)CN3CCCC3)on2)cc1 (centres undefined) | 75 to 77 °C
CCCOc1ccccc1-c1ncc(C(=O)N(C)C)c(=O)[nH]1 | 104 to 105 °C
COc1ccc2nccc(CCC[C@@H]3CCN(CC#Cc4ccccc4F)C[C@@H]3C(=O)O)c2c1 | 154 °C
COc1ccc(C(=O)Nc2nc3ccc(N)cc3c(NCc3ccccc3)c2C#N)cc1 | 228 to 230 °C
COc1c(NC(=O)c2ccc(Br)cc2)ccc2cc(CN3CCCC3)cnc12 | 121 to 122 °C
COc1ccccc1-c1nc2ccc(C(=O)O)cc2c(=O)[nH]1 | 295 to 297 °C
Oc1cc(CCl)ncn1 | 164 to 166 °C
CCCOc1ccc(C(C)=O)cc1C(=O)OC | 49 °C
CC(=O)NC[C@H]1CN(c2ccc(/C=C3/C(=O)N(C)c4ccccc43)cc2)C(=O)O1 | 193 to 195 °C

SMILES | melting point
CCCCCCCCCCCCCCOc1ccc(C(=O)Cl)cc1Cl | 90 °C
COc1ccc(CNC(=O)c2cc([N+](=O)[O-])ccc2NC2CC=CCC2)cc1F (centres undefined) | 140 °C
Cn1cc(Cc2ccc(C(=O)N3CCC(N4CCCC4)C3)cc2)c2ccccc21 (centres undefined) | 73 to 78 °C
CCCC1CCC(C2Cc3c4c(c(F)c(F)c3O2)OCCC4)CC1 (centres undefined) | 96 °C
Nc1ncc(-c2noc(-c3cnn4c(C(F)(F)F)cc(-c5ccc(C(F)(F)F)c(F)c5)nc34)n2)cn1 | 270 °C
CCn1nc(Br)c([N+](=O)[O-])c1CCN | 84.9 to 87.4 °C
Cc1cc(NCC(C)C)c2[nH]ncc2n1 | 162 to 164 °C
CCc1nc2c(N)nc3cc(CCCNC(C)=O)ccc3c2n1CC1CCOCC1 | 209 to 211 °C
COc1cc2c(cc1Nc1ncc(Cl)c(Nc3ccc(N4CCOCC4)cc3OC)n1)C(C)(C)CCC(=O)N2 | 246 to 248 °C
NN1C=NNC1=Cc1ccccc1 | 171 to 173 °C
Cc1c(Br)cccc1N1Cc2ccc(C(C)(C)C)cc2C1=O | 120 to 122 °C
CN(C)Cc1ccccc1Oc1cccc(CC(=O)O)c1 | 205 to 208 °C
COC(=O)Cn1c(C)ccc1C | 44 to 46 °C
CCc1nc(CCc2cccc(N)c2)sc1C | 64 to 65 °C
Cc1c(NC(=O)CC(C)(C)C)c(C)c2c(c1C(O)CO)OCC2c1ccc(C(C)C)cc1 (centres undefined) | 159 to 161 °C
COC(=O)CC1CCc2ccc(OCc3ccc(C#N)cc3)cc2C1 (centres undefined) | 120 to 122 °C
CCOC(=O)C(O)=Cc1cc(CCc2ccccc2)cnn1 | 94 to 95 °C
CCCOc1ccc(N)cc1C1=NC(=O)C2=NN=NC2=N1 | 225 to 227 °C
O=C(Nc1c([N+](=O)[O-])cc(C(F)(F)F)cc1[N+](=O)[O-])C(F)(F)F | 222 to 224 °C
COCOc1ccc2sc(C=O)cc2c1 | 81 to 82 °C
C=CCn1cc(F)cnc1=O | 88 to 90 °C
CCOC(=O)C1=NOC2(CCC(C3CCCCC3)CC2)C1 (centres undefined) | 64 to 71 °C
NC(=O)c1cccc(NC(=O)C(CS)Cc2ccccc2)c1 (centres undefined) | 159 to 164 °C
CNC(=S)N1CCSC1c1ccccc1OCCN1CCN(c2ccccc2)CC1 (single isomer, unassigned; (-)) | 144 to 146 °C
O=S(=O)(Nc1ccccc1OCc1ccc2ccccc2n1)c1cccc(C(F)(F)F)c1 | 154 to 155 °C
COC(=O)COc1ccc(S(=O)(=O)C(Br)(Br)Br)cc1 | 152 to 153 °C
CCCN(CCC)C1Cc2cccc3c2N(C1)C(=O)C3 (centres undefined) | 86 to 88 °C
